Target: T1, Full length human recombinant HDAC8 protein (Homo sapiens, UniProt Q9BY41)
T1 construct: Full length human recombinant HDAC8 protein was expressed in baculoviral system; made in house
T1 sequence (Q9BY41 1-377): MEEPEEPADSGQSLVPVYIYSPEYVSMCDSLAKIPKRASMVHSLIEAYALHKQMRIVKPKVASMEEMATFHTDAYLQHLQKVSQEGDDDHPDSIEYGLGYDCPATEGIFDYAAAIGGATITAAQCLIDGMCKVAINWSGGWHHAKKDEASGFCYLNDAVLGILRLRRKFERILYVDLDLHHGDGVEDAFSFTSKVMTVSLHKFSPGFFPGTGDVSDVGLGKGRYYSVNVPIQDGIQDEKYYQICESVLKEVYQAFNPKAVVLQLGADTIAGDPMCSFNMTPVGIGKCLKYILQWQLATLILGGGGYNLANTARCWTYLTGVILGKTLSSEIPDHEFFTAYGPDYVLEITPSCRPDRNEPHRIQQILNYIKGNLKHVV
Test: In vitro histone deacetylase assay: enzymatic HDAC8 assay, electrophoretic mobility shift
Format: biochemical
Conditions: substrate RHKK(Ac)-NH2, 1 nM enzyme, compounds listed under IC50 range headings
Method: The enzymatic HDAC8 assay was performed using electrophoretic mobility shift assay. Full length human recombinant HDAC8 protein was expressed in baculoviral system and purified by affinity chromatography. The enzymatic reactions were assembled in 384 well plates in a total volume of 25 μL in a reaction buffer composing: 100 mM HEPES, pH7.5, 25 mM KC, 0.1% bovine serum albumin, 0.01% Triton X-100, 1% DMSO (from compounds) 2 μM of the fluorescently labeled peptide substrate and enzyme. The enzyme was added at a final concentration of 1 nM. The peptide substrate RHKK(Ac)-NH2 was used. The compounds were tested at 12 concentrations spaced by 3× dilution intervals. Negative control samples (0%-inhibition in the absence of inhibitor) and positive control samples (100%-inhibition) were assembled in replicates of four in each assay plate. The reactions were incubated at 25° C. and quenched by the addition of 45 μL of termination buffer (100 mM HEPES, pH 7.5, 0.01% Triton X-100, 0.05% SDS).
The terminated assay plates were analyzed on LabChip® 3000 microfluidic electrophoresis instrument (Perkin Elmer/Caliper Life Sciences). The fluorescence intensity of the electrophoretically separated de-acetylated product and substrate peptide was measured. Activity in each sample was determined as the product to sum ratio (PSR): P/(S+P), where P is the peak height of the product peptide and S is the peak height of the substrate peptide. Percent inhibition (Pinh) is determined using the following equation: Pinh=(PSR0%−PSRinh)/(PSR0%−PSR100%)*100, where PSRinh is the product sum ratio in the presence of inhibitor, PSR0% is the average product sum ration in the absence of inhibitor and PSR 100% is the average product sum ratio in 100%-inhibition control samples. The IC50 values of inhibitors were determined by fitting the %-inhibition curves with 4 parameter dose-response model using XLfit 4 software. Ranges of IC50 values for compounds of the invention are disclosed in Table 26.

| Structure (SMILES) | IC50 |
| --- | --- |
| O=C(/C=C/c1ccccc1Nc1nc2ccccc2[nH]1)NO [Example I-1, (E)-3-(2-((1H-benzo[d]imidazol-2-yl)amino)phenyl)-N-hydroxyacrylamide] | 1 to 10 µM |
| COCCn1c(CNc2ccccc2/C=C/C(=O)NO)nc2ccccc21 [Example I-2, (E)-N-hydroxy-3-(2-(((1-(2-methoxyethyl)-1H-benzo[d]imidazol-2-yl)methyl)amino)phenyl)acrylamide] | 1 to 10 µM |
| COCCn1c(Nc2ccccc2/C=C/C(=O)NO)nc2ccccc21 [Example I-3, (E)-N-hydroxy-3-(2-((1-(2-methoxyethyl)-1H-benzo[d]imidazol-2-yl)amino)phenyl)acrylamide] | 1 to 10 µM |
| O=C(/C=C/c1ccccc1NCc1nc2ccc(C(F)(F)F)cc2[nH]1)NO [Example I-4, (E)-N-hydroxy-3-(2-(((6-(trifluoromethyl)-1H-benzo[d]imidazol-2-yl)methyl)amino)phenyl)acrylamide] | 1 to 10 µM |
| O=C(/C=C/c1ccccc1NC(=O)Nc1cccc(C(F)(F)F)c1)NO [Example I-5, (E)-N-hydroxy-3-(2-(3-(3-(trifluoromethyl)phenyl)ureido)phenyl)acrylamide] | 1 to 10 µM |
| O=C(/C=C/c1ccccc1NC(=O)C1(O)CCC1)NO [Example I-6, (E)-1-hydroxy-N-(2-(3-(hydroxyamino)-3-oxoprop-1-en-1-yl)phenyl)cycobutane-1-carboxamide] | 1 to 10 µM |
| O=C(/C=C/c1ccccc1NS(=O)(=O)c1cccc(C(F)(F)F)c1)NO [Example I-7, (E)-N-hydroxy-3-(2-(3-(trifluoromethyl)phenylsulfonamido)phenyl)acrylamide] | 1 to 10 µM |
| NC1CCN(c2ccccc2/C=C/C(=O)NO)CC1 [Example I-8, (E)-3-(2-(4-aminopiperidin-1-yl)phenyl)-N-hydroxyacrylamide 2,2,2-trifluoroacetate] | 1 to 10 µM |
| COc1ccc(CC(=O)NC2CCN(c3ccccc3/C=C/C(=O)NO)CC2)cc1 [Example I-9, (E)-N-hydroxy-3-(2-(4-(2-(4-methoxyphenyl)acetami-do)piperidin-1-yl)phenyl)acrylamide] | 1 to 10 µM |
| O=C(/C=C/c1ccccc1N1CCC(NC(=O)COc2ccc(Cl)cc2)CC1)NO [Example I-10, (E)-3-(2-(4-(2-(4-chlorophenoxy)acetami-do)piperidin-1-yl)phenyl)-N-hydroxyacrylamide] | 1 to 10 µM |
| O=C(/C=C/c1ccccc1N1CCC(NC(=O)c2ccc3cccnc3n2)CC1)NO [Example I-11, (E)-N-(1-(2-(3-(hydroxyamino)-3-oxoprop-1-en-1-yl)phenyl)piperidin-4-yl)-1,8-naphthyridine-2-carboxamide] | 1 to 10 µM |
| CN1CC(C(=O)NC2CCN(c3ccccc3/C=C/C(=O)NO)CC2)C1 [Example I-12, (E)-N-(1-(2-(3-(hydroxyamino)-3-oxoprop-1-en-1-yl)phenyl)piperidin-4-yl)-1-methylazetidine-3-carboxamide] | 1 to 10 µM |
| O=C(/C=C/c1ccccc1N1CCC(NC(=O)Cc2ccc(Cl)cc2)CC1)NO [Example I-13, (E)-3-(2-(4-(2-(4-chlorophenyl)acetamido)piperidin-1-yl)phenyl)-N-hydroxyacrylamide] | 1 to 10 µM |
| Cc1cccc(C(=O)NC2CCN(c3ccccc3/C=C/C(=O)NO)CC2)c1 [Example I-14] | 1 to 10 µM |
| Cc1oc(-c2ccc(Cl)cc2)cc1C(=O)NC1CCN(c2ccccc2/C=C/C(=O)NO)CC1 [Example I-15] | 1 to 10 µM |
| Cc1c(C(=O)NC2CCN(c3ccccc3/C=C/C(=O)NO)CC2)cnn1-c1ccccc1 [Example I-16] | 1 to 10 µM |
| CN(C)Cc1ccccc1CNC1CCN(c2ccccc2C=CC(=O)NO)CC1 [Example I-17, (E)-3-(2-(4-((2-((dimethylamino)methyl)benzyl)amino)piperidin-1-yl)phenyl-N-hydroxyacrylamide] | 1 to 10 µM |
| CN(C)Cc1cccc(CNC2CCN(c3ccccc3/C=C/C(=O)NO)CC2)c1 [Example I-18, (E)-3-(2-(4-((3-((dimethylamino)methyl)benzyl)amino)piperidin-1-yl)phenyl)-N-hydroxyacrylamide] | 1 to 10 µM |

| Structure (SMILES) | IC50 |
| --- | --- |
| O=C(/C=C/c1ccccc1N1CCN(C(=O)C2CCCO2)CC1)NO (centres unmarked) [Example I-19, (E)-N-hydroxy-3-(2-(4-(tetrahydrofuran-2-carbonyl)piperazin-1-yl)phenyl)acrylamide] | 1 to 10 µM |
| O=C(/C=C/c1ccccc1N1CCN(C(=O)C2Cc3ccccc3C2)CC1)NO [Example I-20, (E)-3-(2-(4-(2,3-dihydro-1H-indene-2-carbonyl)-piperazin-1-yl)phenyl)-N-hydroxyacrylamide] | 1 to 10 µM |
| COCC1(C(=O)N2CCN(c3ccccc3/C=C/C(=O)NO)CC2)CCC1 [Example I-21, (E)-N-hydroxy-3-(2-(4-(1-(methoxymethyl)cyclobu-tane-1-carbonyl)piperazin-1-yl)phenyl)acrylamide] | 1 to 10 µM |
| O=C(/C=C/c1ccccc1N1CCN(C(=O)c2cc3ccccn3n2)CC1)NO [Example I-22, (E)-N-hydroxy-3-(2-(4-(pyrazolo[1,5-a]pyridine-2-carbonyl)piperazin-1-yl)phenyl)acrylamide] | 1 to 10 µM |
| O=C(/C=C/c1ccccc1N1CCN(C(=O)C2CCC(F)(F)CC2)CC1)NO [Example I-23] | 1 to 10 µM |
| O=C(/C=C/c1ccccc1N1CCN(C(=O)CC23CCCN2CCC3)CC1)NO [Example I-24, (E)-N-hydroxy-3-(2-(4-(2-(tetrahydro-1H-pyrrolizin-7a(5H)-yl)acetyl)piperazin-1-yl)phenyl)acrylamide] | 1 to 10 µM |
| O=C(/C=C/c1ccccc1N1CCN(C(=O)c2cc3ccccc3[nH]2)CC1)NO [Example I-25, (E)-3-(2-(4-(1H-indole-2-carbonyl)piperazin-1-yl)phenyl)-N-hydroxyacrylamide] | 1 to 10 µM |
| CC(C)S(=O)(=O)NC1CCN(c2ccccc2/C=C/C(=O)NO)CC1 [Example I-26] | 1 to 10 µM |
| O=C(/C=C/c1ccccc1N1CCC(NS(=O)(=O)C2CCCC2)CC1)NO [Example I-27, (E)-3-(2-(4-(cyclopentanesulfonamido)piperidin-1-yl)phenyl)-N-hydroxyacrylamide] | 1 to 10 µM |
| O=C(/C=C/c1ccccc1N1CCN(S(=O)(=O)c2ccc3c(c2)OCCO3)CC1)NO [Example I-28, (E)-3-(2-(4-((2,3-dihydrobenzo[b][1,4]di-oxin-6-yl)sulfonyl)piperazin-1-yl)phenyl)-N-hydroxyacrylamide] | 1 to 10 µM |
| O=C(/C=C/c1ccccc1N1CCN(S(=O)(=O)c2ccccc2OC(F)(F)F)CC1)NO [Example I-29, (E)-N-hydroxy-3-(2-(4-((2-(trifluoromethoxy)phenyl)sulfonyl)piperazin-1-yl)phenyl)acrylamide] | 1 to 10 µM |
| O=C(/C=C/c1ccccc1N1CCN(S(=O)(=O)c2ccc(OC(F)F)cc2)CC1)NO [Example I-30, (E)-3-(2-(4-((4-(difluoromethoxy)phenyl)sulfonyl)piperazin-1-yl)phenyl)-N-hydroxyacrylamide] | 1 to 10 µM |
| COc1ccccc1S(=O)(=O)N1CCN(c2ccccc2/C=C/C(=O)NO)CC1 [Example I-31, (E)-N-hydroxy-3-(2-(4-((2-methoxyphenyl)sulfonyl)piperazin-1-yl)phenyl)acrylamide] | 1 to 10 µM |
| O=C(/C=C/c1ccccc1N1CCN(S(=O)(=O)c2ccc(CNC(=O)c3ccccc3)s2)CC1)NO [Example I-32, (E)-N-((5-((4-(2-(3-(hydroxyamino)-3-oxoprop-1-en-1-yl)phenyl)piperazin-1-yl)sulfonyl)thiophen-2-yl)methyl)benzamide] | 1 to 10 µM |
| Cc1c(S(=O)(=O)N2CCN(c3ccccc3/C=C/C(=O)NO)CC2)sc2ccc(Cl)cc12 [Example I-33, (E)-3-(2-(4-((5-chloro-3-methylbenzo[b]thiophen-2-yl)sulfonyl)piperazin-1-yl)phenyl)-N-hydroxyacrylamide] | 1 to 10 µM |
| COc1ccc(OC)c(S(=O)(=O)N2CCN(c3ccccc3/C=C/C(=O)NO)CC2)c1 [Example I-34] | 1 to 10 µM |
| O=C(/C=C/c1ccccc1N1CCN(C(=O)C2(c3cnccn3)CC2)CC1)NO [Example I-35, (2E)-N-hydroxy-3-(2-{4-[1-(pyrazin-2-yl)cyclopropanecarbonyl]piperazin-1-yl}phenyl)prop-2-enamide] | 1 to 10 µM |

— patent US10508077B2 (FORMA Therapeutics, Inc., priority 2015, dated 2019)
